Results on four molecules are retold here after ChEMBL document CHEMBL4393697, “Lipophilic efficient phenylthiazoles with potent undecaprenyl pyrophosphatase inhibitory activity” (Eur J Med Chem, 2019).

Molecules are shown by their SMILES. In brackets after ≈: the same amount, converted by molar mass. Activity calls are given as the source filed them. A value given as a limit tells only on which side of the number the result lay.

For series [1], the system named is Staphylococcus aureus. Description: Antibacterial activity against methicillin resistant Staphylococcus aureus NRS119 assessed as reduction in bacterial cell growth incubated for 18 to 20 hrs by broth microdilution method. The class given is functional.
Series [2] relates to Staphylococcus aureus. Description: Antibacterial activity against methicillin-resistant Staphylococcus aureus USA400 assessed as reduction in CFU at 4 x MIC preincubated for 6 hrs in Tryptic soy broth followed by incubation for 18 to 20 hrs on TSA plate by time-kill assay. The class given is functional, organism-based.
Series [3] concerns Staphylococcus epidermidis. In words: Antibacterial activity against methicillin resistant Staphylococcus epidermidis NRS101 assessed as reduction in bacterial cell growth incubated for 18 to 20 hrs by broth microdilution method. The class given is functional. (Dilution methods test growth across graded concentrations, often in twofold steps.)
Series [4] deals with Staphylococcus aureus. In words: Bactericidal activity against vancomycin resistant Staphylococcus aureus VRS12 assessed as reduction in bacterial cell growth incubated for 18 to 20 hrs followed by re-plating on tryptic soy agar plates at 37 degC for 18 hrs by broth microdilution assay. The class given is functional.
For series [5], the system named is Streptococcus pneumoniae. In words: Bactericidal activity against Cephalosporin resistant Streptococcus pneumoniae ATCC 51916 assessed as reduction in bacterial cell growth incubated for 18 to 20 hrs followed by re-plating on tryptic soy agar plates at 37 degC for 18 hrs by broth microdilution assay. The class given is functional.
The test system of the next series is Escherichia coli. Description: Antibacterial activity against Escherichia coli BW25113 assessed as reduction in bacterial cell growth incubated for 18 to 20 hrs by broth microdilution method. The class given is functional.
Another series concerns Klebsiella pneumoniae. In words: Bactericidal activity against Klebsiella pneumoniae BAA-1706 assessed as reduction in bacterial cell growth incubated for 18 to 20 hrs followed by re-plating on tryptic soy agar plates at 37 degC for 18 hrs by broth microdilution assay. The class given is functional.
In series [6] the test system is Staphylococcus aureus. Description: Antibacterial activity against methicillin-resistant Staphylococcus aureus USA400 treated over 14 passages by broth microdilution assay. The class given is functional, organism-based.
Series [7] is described as follows: Solubility of compound in PBS after 2 hrs by turbidity based absorbance analysis. The class given is physicochemical.
The subject of series [8] is Staphylococcus aureus. Description: Ratio of MBC to MIC for Staphylococcus aureus ATCC 6538 by broth microdilution assay. The class given is functional.
Series [9] has as its system Staphylococcus aureus. In words: Ratio of MBC to MIC for Staphylococcus aureus NRS107 by broth microdilution assay. The class given is functional.
In the next series the test system is Enterococcus faecalis. In words: Ratio of MBC to MIC for vancomycin resistant Enterococcus faecalis ATCC 51299 by broth microdilution method. The class given is functional.
A further series relates to Enterococcus faecium. In words: Ratio of MBC to MIC for vancomycin resistant Enterococcus faecium ATCC 700221 by broth microdilution method. The class given is functional.
In another series the test system is Listeria monocytogenes. Description: Ratio of MBC to MIC for Listeria monocytogenes ATCC 19111 by broth microdilution assay. The class given is functional.
In series [10] the test system is Streptococcus pneumoniae. Description: Ratio of MBC to MIC for Cephalosporin resistant Streptococcus pneumoniae ATCC 51916 by broth microdilution method. The class given is functional.
Series [11] concerns Streptococcus pneumoniae. In words: Ratio of MBC to MIC for Methicillin resistant Streptococcus pneumoniae ATCC 700677 by broth microdilution method. The class given is functional.
The subject of series [12] is Staphylococcus aureus. Description: Antibacterial activity against methicillin-resistant Staphylococcus aureus USA400 assessed as reduction in CFU at 4 x MIC preincubated for 12 hrs in Tryptic soy broth followed by incubation for 18 to 20 hrs on TSA plate by time-kill assay. The class given is functional.
Series [13] deals with Staphylococcus aureus. In words: Antibacterial activity against methicillin-resistant Staphylococcus aureus USA400 assessed as reduction in CFU at 4 x MIC preincubated for 24 hrs in Tryptic soy broth followed by incubation for 18 to 20 hrs on TSA plate by time-kill assay. The class given is functional, organism-based.
Series [14] relates to Staphylococcus aureus. Description: Resistance index, ratio of MIC for antibacterial activity against methicillin-resistant Staphylococcus aureus USA400 treated repeatedly over 6 passages to MIC for antibacterial activity against methicillin-resistant Staphylococcus aureus USA400 treated for 18 to 20 hrs by broth microdilution assay. The class given is functional.
The next series concerns J774. Description: Cytotoxicity against mouse J774 cells reduction in cell viability up to 32 ug/ml incubated for 24 hrs by MTS assay. The class given is cell-based. The note with it: j774, 24 h. In general terms: Formazan colour is commonly taken as a measure of viable cells.

One may read the MIC as the lowest concentration that inhibits growth of the organism. A word on the MBC: it is the smallest concentration meeting the test's criterion for killing. As a reminder, the solubility (kinetic) is the concentration staying in solution when a stock, usually in DMSO, is diluted into the medium. With `C/C(=N\NC(=N)N)c1sc(-c2ccc(C#CC3(O)CCCCC3)cc2)nc1C`, the minimum inhibitory concentration (MIC) was 2 µg/mL (≈ 5.06 µM) in the series on Staphylococcus aureus [1], 4 µg/mL (≈ 10.1 µM) in series [3] and above 64 µg/mL in the series on Escherichia coli. In addition, the inhibition entry in the series with Staphylococcus aureus [2] is “Active”. In addition, the values for the minimal bactericidal concentration (MBC) in the series with Staphylococcus aureus [4], with Streptococcus pneumoniae [5] and with Klebsiella pneumoniae were 8 µg/mL (≈ 20.2 µM), 8 µg/mL (≈ 20.2 µM) and above 64 µg/mL, respectively. In addition, the result with Staphylococcus aureus [6] was Active. The same molecule had a solubility (kinetic) at 2 h in [7] of 147 µM (≈ 58.1 µg/mL). Moreover, the Ratio in the series on Staphylococcus aureus [8], in the series on Staphylococcus aureus [9], with Enterococcus faecalis, in the series with Enterococcus faecium, with Listeria monocytogenes and with Streptococcus pneumoniae [10] was 2 throughout. In the series on Streptococcus pneumoniae [11], the Ratio came to 2.

Take `C/C(=N\NC(=N)N)c1sc(-c2ccc(C#CC(C)(C)O)cc2)nc1C`: the results for the MIC (with Staphylococcus aureus [1]; in [3]; with Escherichia coli) were 2 µg/mL (≈ 5.63 µM), 4 µg/mL (≈ 11.3 µM) and above 64 µg/mL, respectively. Also, the minimal bactericidal concentration (MBC) is 16 µg/mL (≈ 45 µM) with Staphylococcus aureus [4], 8 µg/mL (≈ 22.5 µM) in the series with Streptococcus pneumoniae [5] and above 64 µg/mL with Klebsiella pneumoniae. The same molecule returned a solubility (kinetic) at 2 h in series [7] of 320 µM (≈ 114 µg/mL). Moreover, the Ratio in the series on Staphylococcus aureus [8], in the series on Staphylococcus aureus [9], with Enterococcus faecalis, in the series with Enterococcus faecium, in the series on Listeria monocytogenes and in the series with Streptococcus pneumoniae [10] was 2 each time. The Ratio with Streptococcus pneumoniae [11] is 2.

Take `C/C(=N\NC(=N)N)c1sc(-c2ccc(C#Cc3ccc(N)cc3)cc2)nc1C`: the figures for the minimal inhibitory concentration (MIC) (in the series on Staphylococcus aureus [1]; in series [3]; in the series with Escherichia coli) were 8 µg/mL (≈ 20.6 µM), 2 µg/mL (≈ 5.15 µM) and above 64 µg/mL, respectively. For the same molecule, the Activity is 3 log10CFU with Staphylococcus aureus [12] and “Non-Toxic” with J774. Also, the minimal bactericidal concentration (MBC) in the series on Staphylococcus aureus [4] is 32 µg/mL (≈ 82.4 µM); in the series with Streptococcus pneumoniae [5] it was 32 µg/mL (≈ 82.4 µM); with Klebsiella pneumoniae, above 64 µg/mL. The inhibition entry with Staphylococcus aureus [13] was “Active”. Moreover, the Ratio in the series with Staphylococcus aureus [14] is listed as 1. In addition, in series [7], the solubility (kinetic) at 2 h was 105 µM (≈ 40.8 µg/mL).

In the case of `C/C(=N\NC(=N)N)c1sc(-c2ccc(C#Cc3ccc(C)s3)cc2)nc1C`, the MIC is 4 µg/mL (≈ 10.2 µM) with Staphylococcus aureus [1], 4 µg/mL (≈ 10.2 µM) in [3] and 64 µg/mL (≈ 163 µM) with Escherichia coli. Further, the Activity in the series on Staphylococcus aureus [12] was 3 log10CFU. Besides, the minimum bactericidal concentration (MBC) with Staphylococcus aureus [4] was 16 µg/mL (≈ 40.7 µM); in the series with Streptococcus pneumoniae [5], 16 µg/mL (≈ 40.7 µM); in the series with Klebsiella pneumoniae, 64 µg/mL (≈ 163 µM). The inhibition entry with Staphylococcus aureus [13] was “Active”. Further, the Ratio with Staphylococcus aureus [14] stood at 1. In [7], this molecule returned a kinetic solubility at 2 h of 12 µM (≈ 4.72 µg/mL).
